Measured values as given in patent US11339157B1, “4H-pyrrolo[3,2-c]pyridin-4-one derivatives” (Bayer Aktiengesellschaft, priority 2017, dated 2022).
“And” between values parts separate entries of the source, which are not always exact repeats. Equal entries are not always repeated. Structures can show the parent of a compound that is named as a salt.

Assays:
Bub1 = Bub1 (Homo sapiens (Human), UniProt O43683); test: Bub1 kinase assay (TR-FRET, 10 μM ATP); type: biochemical; conditions: mean, read-out: Bub1 kinase assay IC50 [mol/l] (mean)
Chain of Bub1 (O43683 704-1085): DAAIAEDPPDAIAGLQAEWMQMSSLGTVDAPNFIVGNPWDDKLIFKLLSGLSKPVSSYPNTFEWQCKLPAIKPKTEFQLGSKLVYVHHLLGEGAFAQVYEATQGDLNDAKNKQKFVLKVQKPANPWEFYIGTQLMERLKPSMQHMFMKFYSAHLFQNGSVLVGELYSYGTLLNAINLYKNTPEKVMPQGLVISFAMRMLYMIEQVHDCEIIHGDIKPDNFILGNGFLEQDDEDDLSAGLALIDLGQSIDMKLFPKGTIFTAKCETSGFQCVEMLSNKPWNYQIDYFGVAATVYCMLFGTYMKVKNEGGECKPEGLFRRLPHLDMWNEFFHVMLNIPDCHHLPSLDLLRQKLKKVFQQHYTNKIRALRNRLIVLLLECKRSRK
Description: Bub1-inhibitory activities of compounds described in the present invention were quantified using a time-resolved fluorescence energy transfer (TR-FRET) kinase assay which measures phosphorylation of the synthetic peptide Biotin-Ahx-[…]—SEQ ID NO: 5 (C-terminus in amide form), purchased from e.g. Biosyntan (Berlin, Germany) by the (recombinant) catalytic domain of human Bub1 (amino acids 704-1085), expressed in Hi5 insect cells with an N-terminal His6-tag (SEQ ID NO: 9) and purified by affinity-(Ni-NTA) and size exclusion chromatography.
In a typical assay 11 different concentrations of each compound (0.1 nM, 0.33 nM, 1.1 nM, 3.8 nM, 13 nM, 44 nM, 0.15 μM, 0.51 μM, 1.7 μM, 5.9 μM and 20 μM) were tested in duplicate within the same microtiter plate. To this end, 100-fold concentrated compound solutions (in DMSO) were previously prepared by serial dilution (1:3.4) of 2 mM stocks in a clear low volume 384-well source microtiter plate (Greiner Bio-One, Frickenhausen, Germany), from which 50 nl of compounds were transferred into a black low volume test microtiter plate from the same supplier. […] The resulting mixture (5 μl final volume) was incubated at 22° C. during 60 min., and the reaction was stopped by the addition of 5 μl of an aqueous EDTA-solution (50 mM EDTA, in 100 mM HEPES pH 7.5 and 0.2% (w/v) bovine serum albumin) which also contained the TR-FRET detection reagents (0.2 μM streptavidin-XL665 [Cisbio Bioassays, Codolet, France] and 1 nM anti-phosho-Serine antibody [Merck Millipore, cat. #35-002] and 0.4 nM LANCE EU-W1024 labeled anti-mouse IgG antibody [Perkin-Elmer, product no. AD0077, alternatively a Terbium-cryptate-labeled anti-mouse IgG antibody from Cisbio Bioassays can be used]). The stopped reaction mixture was further incubated 1 h at 22° C. in order to allow the formation of complexes between peptides and detection reagents. Subsequently, the amount of product was evaluated by measurement of the resonance energy transfer from the Eu-chelate-antibody complex recognizing the Phosphoserine residue to the streptavidin-XL665 bound to the biotin moiety of the peptide. To this end, the fluorescence emissions at 620 nm and 665 nm after excitation at 330-350 nm were measured in a TR-FRET plate reader, e.g. a Rubystar or Pherastar (both from BMG Labtechnologies, Offenburg, Germany) or a Viewlux (Perkin-Elmer) and the ratio of the emissions (665 nm/[…]) was taken as indicator for the amount of phosphorylated substrate. The data were normalised using two sets of control wells for high-(=enzyme reaction without inhibitor=0%=Minimum inhibition) and low-(=all assay components without enzyme=100%=Maximum inhibition) Bub1 activity. IC50 values were calculated by fitting the normalized inhibition data to a 4-parameter logistic equation (Minimum, Maximum, IC50, Hill; Y=Max+(Min−Max)/(1+(X/IC50)Hill)).

[1] = target: EGFR ins SVD (insertion of SVD between D770 and N771) (Homo sapiens, UniProt P00533, INS767SVD); test: Exon 20-Mutant-EGFR(D770_N771insSVD) kinase assay (TR-FRET); type: biochemical; conditions: Table 9; read-out: mutEGFR (D770_N771insSVD) kinase assay IC50
Chain of EGFR ins SVD (insertion of SVD between D770 and N771) (P00533 with tags, fused parts or gaps INS767SVD limits assumed): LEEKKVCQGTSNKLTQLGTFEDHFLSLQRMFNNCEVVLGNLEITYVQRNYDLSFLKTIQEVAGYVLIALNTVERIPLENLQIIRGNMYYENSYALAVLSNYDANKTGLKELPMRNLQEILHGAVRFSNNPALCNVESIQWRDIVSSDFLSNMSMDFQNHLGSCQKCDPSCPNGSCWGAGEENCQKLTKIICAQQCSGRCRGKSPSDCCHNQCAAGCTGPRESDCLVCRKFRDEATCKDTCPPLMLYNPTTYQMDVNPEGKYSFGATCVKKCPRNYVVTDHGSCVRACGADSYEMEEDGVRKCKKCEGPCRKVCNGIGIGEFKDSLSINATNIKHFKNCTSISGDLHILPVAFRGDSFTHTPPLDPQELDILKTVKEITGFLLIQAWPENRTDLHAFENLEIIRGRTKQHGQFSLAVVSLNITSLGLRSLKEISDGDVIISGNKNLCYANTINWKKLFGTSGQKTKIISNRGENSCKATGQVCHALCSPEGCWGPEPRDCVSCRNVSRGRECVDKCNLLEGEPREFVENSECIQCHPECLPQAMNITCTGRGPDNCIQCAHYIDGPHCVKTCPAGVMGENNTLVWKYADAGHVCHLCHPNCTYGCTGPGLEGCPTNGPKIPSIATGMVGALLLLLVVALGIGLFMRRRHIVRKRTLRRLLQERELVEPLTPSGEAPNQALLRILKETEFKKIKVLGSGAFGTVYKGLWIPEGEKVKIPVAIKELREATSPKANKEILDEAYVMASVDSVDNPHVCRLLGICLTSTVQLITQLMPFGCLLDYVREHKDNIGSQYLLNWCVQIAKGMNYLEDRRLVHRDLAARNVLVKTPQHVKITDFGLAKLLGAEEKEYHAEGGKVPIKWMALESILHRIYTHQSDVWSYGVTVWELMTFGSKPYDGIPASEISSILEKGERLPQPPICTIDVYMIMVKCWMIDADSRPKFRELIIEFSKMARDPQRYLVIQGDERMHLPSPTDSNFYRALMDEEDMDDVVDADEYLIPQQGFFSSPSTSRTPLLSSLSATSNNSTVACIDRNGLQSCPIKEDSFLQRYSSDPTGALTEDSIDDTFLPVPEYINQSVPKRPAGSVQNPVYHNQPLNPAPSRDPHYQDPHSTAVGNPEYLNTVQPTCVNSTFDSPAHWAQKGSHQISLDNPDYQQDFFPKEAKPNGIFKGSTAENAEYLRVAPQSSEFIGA
Protocol: Exon 20-Mutant-EGFR(D770_N771insSVD) Kinase Assay
Inhibitory activity of compounds of the present invention against an Epidermal Growth Factor Receptor (EGFR) with an insertion of the amino acids sequence SVD between D770 and N771 was quantified employing the TR-FRET based kinase activity assay as described in the following paragraphs.
For the assay 50 nl of a 100-fold concentrated solution of the test compound in DMSO was pipetted into either a black low volume 384 well microtiter plate or a black 1536 well microtiter plate (both Greiner Bio-One, Frickenhausen, Germany), 2 μl of a solution of EGFR in aqueous assay buffer [50 mM Hepes pH 7.0, 10 mM MgCl2, 1 mM dithiothreitol, 0.5 mM EGTA, 0.3 mM activated sodium ortho-vanadate, 0.005% (w/v) bovine serum albumin, 0.005% (v/v) Tween-20] were added and the mixture was incubated for 15 min at 22° C. to allow pre binding of the test compounds to the enzyme before the start of the kinase reaction. […] The concentration of EGFR was adjusted depending of the activity of the enzyme lot and was chosen appropriate to have the assay in the linear range, typical concentration was 15 pg/μl. The reaction was stopped by the addition of 3 μl of a solution of HTRF detection reagents (83.3 nM streptavidine-XL665 [Cisbio Bioassays, Codolet, France] and 1.67 nM PT66-Tb-Cryptate, a terbium-cryptate labelled anti-phospho-tyrosine antibody from Cisbio Bioassays [instead of the PT66 Tb cryptate PT66 Eu Chelate from Perkin Elmer can also be used]) in an aqueous EDTA-solution (133.3 mM EDTA, 0.2% (w/v) bovine serum albumin in 50 mM HEPES pH 7.5).
The resulting mixture was incubated 1 h at 22° C. to allow the binding of the biotinylated phosphorylated peptide to the streptavidine-XL665 and the PT66-Tb-Cryptate. Subsequently the amount of phosphorylated substrate was evaluated by measurement of the resonance energy transfer from the PT66-Tb-Cryptate to the streptavidine-XL665.

Ba/F3-EGFR-insSVD cells = test: Proliferation assay in BA/F3 (ins SVD) cells (Cell Titer-Glo); type: cell-based
Protocol: (§1) Cellular Data Description (WT, insSVD, Ins ASV)
(§2) Plates were incubated at 37° C. for 48 h. Retrovirus was harvested by filtering the media supernatant through a 0.45 μm filter.
(§3) Ba/F3 cells purchased from DSMZ were grown in RPMI+10% FBS+10 ng/mL IL-3 and infected with filtered retroviral supernatant at a 1:2 dilution. Polybrene was added to a concentration of 8 μg/mL, plates were spun for 90 min, and incubated overnight at 37° C. 2 μg/mL puromycin was added to the infected cells 24 h after infection and cells were continually grown in the presence of puromycin and 10 ng/mL IL-3. Following stably expressing Ba/F3 cell lines were generated: Ba/F3-EGFR-WT, Ba/F3-EGFR-insSVD.
(§4) The cells ectopically expressing WT EGFR were plated with 10 ng/mL Millipore Culture grade EGF. The cells ectopically expressing EGFR-insSVD were plated without EGF.
(§5) 100 nL of compound was added to each well using a 100 nL pin head, and plates were incubated at 37° C. for 48 h.
(§6) Cell viability was measured by adding 30 μL of Cell Titer-Glo Luminescent Cell Viability Reagent. Plates were sealed with Perkin Elmer Top-Seal, inverted several times to mix, and immediately centrifuged at 1000 rpm for 2 min. Plates were incubated in low light conditions for 8-10 min and luminescence was measured.

Ba/F3-EGFR-WT cells = test: Proliferation assay in BA/F3 (wild type) cells (Cell Titer-Glo); type: cell-based
Protocol: as §1, §2, §3, §4, §5, §6

[2] = Mus musculus, BaF3, 48 h, Table 10, plated without EGF
[3] = Mus musculus, BaF3, 48 h, Table 10, plated with 10 ng/mL EGF
[4] = Mus musculus, BaF3, Table 10, plated without EGF, 48 h
[5] = Mus musculus, BaF3, Table 10, plated with 10 ng/mL EGF, 48 h

Row | Compound | IC50 (Bub1) | IC50 [1] | IC50 (Ba/F3-EGFR-insSVD cells; [2]) | IC50 (Ba/F3-EGFR-WT cells; [3]) | IC50 (Ba/F3-EGFR-insSVD cells; [4]) | IC50 (Ba/F3-EGFR-WT cells; [5]) | IC50 (Ba/F3-EGFR-insSVD cells; Table 10, plated without EGF, 48 h) | IC50 (Ba/F3-EGFR-WT cells; Table 10, plated with 10 ng/mL EGF, 48 h)
1 | COCCOc1cnccc1-c1[nH]c2c(c1Nc1ccccc1)C(=O)NCC2 [Example 1, 2-[3-(2-methoxyethoxy)pyridin-4-yl]-3-(phenylamino)-1,5,6,7-tetrahydro-4H-pyrrolo[3,2-c]pyridin-4-one] | 14.5 nM |  |  |  |  |  |  | 
2 | Cc1c(Cl)cccc1Nc1c(-c2ccncc2OC[C@@H]2CCCN2C)[nH]c2c1C(=O)NCC2 [Example 77, 3-(3-chloro-2-methylanilino)-2-(3-{[(2S)-1-methylpyrrolidin-2-yl]methoxy}pyridin-4-yl)-1,5,6,7-tetrahydro-4H-pyrrolo[3,2-c]pyridin-4-one] |  | 0.727 nM | 46.3 nM | 1480 nM |  |  |  | 
3 | COC(C)(C)COc1cnccc1-c1[nH]c2c(c1Nc1cccc(Cl)c1Br)C(=O)NCC2 [Example 78, 3-(2-bromo-3-chloroanilino)-2-[3-(2-methoxy-2-methylpropoxy)pyridin-4-yl]-1,5,6,7-tetrahydro-4H-pyrrolo[3,2-c]pyridin-4-one] |  | < 0.0725 nM and 0.0736 nM | 16 nM | 583 nM |  |  |  | 
4 | O=C1NCCc2[nH]c(-c3ccncc3OCC3CCOC3)c(Nc3cccc(Cl)c3OC(F)F)c21 (stereo not shown) [Example 79, 3-[3-chloro-2-(difluoromethoxy)anilino]-2-{3-[(oxolan-3-yl)methoxy]pyridin-4-yl}-1,5,6,7-tetrahydro-4H-pyrrolo[3,2-c]pyridin-4-one] |  | 0.242 nM | 118 nM | 1810 nM |  |  |  | 
5 | COc1c(Cl)cccc1Nc1c(-c2ccncc2OC[C@@H]2CCCN2)[nH]c2c1C(=O)NCC2 [Example 80, 3-(3-chloro-2-methoxyanilino)-2-(3-{[(2S)-pyrrolidin-2-yl]methoxy}pyridin-4-yl)-1,5,6,7-tetrahydro-4H-pyrrolo[3,2-c]pyridin-4-one] |  | 0.503 nM | 206 nM | 1460 nM |  |  |  | 
6 | O=C1NCCc2[nH]c(-c3ccncc3OCCN3CCOCC3)c(Nc3cccc(Cl)c3OC(F)F)c21 [Example 81, 3-[3-chloro-2-(difluoromethoxy)anilino]-2-{3-[2-(morpholin-4-yl)ethoxy]pyridin-4-yl}-1,5,6,7-tetrahydro-4H-pyrrolo[3,2-c]pyridin-4-one] |  | 0.441 nM |  |  | 405 nM | 4190 nM |  | 
7 | O=C1NCCc2[nH]c(-c3ccncc3OCC3CCOCC3)c(Nc3cccc(Cl)c3OC(F)F)c21 [Example 82, 3-[3-chloro-2-(difluoromethoxy)anilino)-2-{3-[(oxan-4-yl)-methoxy]pyridin-4-yl}-1,5,6,7-tetrahydro-4H-pyrrolo[3,2-c]pyridin-4-one] |  | 0.399 nM | 909 nM | 8610 nM |  |  |  | 
8 | COC(C)(C)COc1cnccc1-c1[nH]c2c(c1Nc1cccc(F)c1OC(F)F)C(=O)NCC2 [Example 83, 3-[2-(difluoromethoxy)-3-fluoroanilino]-2-[3-(2-methoxy-2-methylpropoxy)pyridin-4-yl]-1,5,6,7-tetrahydro-4H-pyrrolo[3,2-c]pyridin-4-one-hydrogen chloride (1/1) Salt] |  | 0.167 nM |  |  |  |  | 100 nM | 2290 nM
9 | COc1c(F)cccc1Nc1c(-c2ccncc2OCCN2CCOCC2)[nH]c2c1C(=O)NCC2 [Example 84, 3-(3-fluoro-2-methoxyanilino)-2-{3-[2-(morpholin-4-yl)ethoxy]pyridin-4-yl}-1,5,6,7-tetrahydro-4H-pyrrolo[3,2-c]pyridin-4-one] |  | 0.223 nM |  |  | 188 nM | 2210 nM |  | 
10 | COc1c(F)cccc1Nc1c(-c2ccncc2OCC2CCCO2)[nH]c2c1C(=O)NCC2 (stereo not shown) [Example 86, 3-(3-fluoro-2-methoxyanilino)-2-{3-[(oxolan-2-yl)methoxy]pyridin-4-yl}-1,5,6,7-tetrahydro-4H-pyrrolo[3,2-c]pyridin-4-one] |  | 0.122 nM | 12.8 nM | 377 nM |  |  |  | 
11 | COc1c(Cl)cccc1Nc1c(-c2ccncc2OCCOC(C)(C)C)[nH]c2c1C(=O)NCC2 [Example 87, 2-[3-(2-tert-butoxyethoxy)pyridin-4-yl]-3-(3-chloro-2-methoxyanilino)-1,5,6,7-tetrahydro-4H-pyrrolo[3,2-c]pyridin-4-one] |  | 0.204 nM | 34.4 nM | 1060 nM |  |  |  | 
12 | COc1c(F)cccc1Nc1c(-c2ccncc2OCC2CCCCN2C)[nH]c2c1C(=O)NCC2 (stereo not shown) [Example 90, 3-(3-fluoro-2-methoxyanilino)-2-(3-{[1-methylpiperidin-2-yl]methoxy}pyridin-4-yl)-1,5,6,7-tetrahydro-4H-pyrrolo[3,2-c]pyridin-4-one] |  | 0.69 nM | 29 nM | 2660 nM |  |  |  | 
13 | COc1c(F)cccc1Nc1c(-c2ccncc2OCCOC(C)(C)C)[nH]c2c1C(=O)NCC2 [Example 91, 2-[3-(2-tert-butoxyethoxy)pyridin-4-yl]-3-(3-fluoro-2-methoxyanilino)-1,5,6,7-tetrahydro-4H-pyrrolo[3,2-c]pyridin-4-one] |  | 0.135 nM | 35.7 nM | 1100 nM |  |  |  | 
14 | COc1c(F)cccc1Nc1c(-c2ccncc2OC[C@@H](C)OC)[nH]c2c1C(=O)NCC2 [Example 92, 3-(3-fluoro-2-methoxyanilino)-2-{3-[(2R)-2-methoxypropoxy]pyridin-4-yl}-1,5,6,7-tetrahydro-4H-pyrrolo[3,2-c]pyridin-4-one] |  | 0.118 nM | 10.4 nM | 309 nM |  |  |  | 
15 | COc1c(F)cccc1Nc1c(-c2ccncc2OC(C)Cc2ccccc2)[nH]c2c1C(=O)NCC2 (stereo not shown) [Example 93, 3-(3-fluoro-2-methoxyanilino)-2-{3-[(1-phenylpropan-2-yl)oxy]pyridin-4-yl}-1,5,6,7-tetrahydro-4H-pyrrolo[3,2-c]pyridin-4-one] |  | 0.277 nM | 468 nM | 3680 nM |  |  |  | 
16 | COC(C)(C)COc1cnccc1-c1[nH]c2c(c1Nc1cccc(F)c1C#N)C(=O)NCC2 [Example 94, 2-fluoro-6-({2-[3-(2-methoxy-2-methylpropoxy)pyridin-4-yl]-4-oxo-4,5,6,7-tetrahydro-1H-pyrrolo[3,2-c]pyridin-3-yl}amino)benzonitrile] |  | 0.228 nM | 54.9 nM | 4620 nM |  |  |  | 
17 | COc1c(Cl)cccc1Nc1c(-c2ccncc2OC[C@@H]2CCCN2CC(F)(F)F)[nH]c2c1C(=O)NCC2 [Example 95, 3-(3-chloro-2-methoxyanilino)-2-(3-{[(2S)-1-(2,2,2-trifluoroethyl)pyrrolidin-2-yl]methoxy}pyridin-4-yl)-1,5,6,7-tetrahydro-4H-pyrrolo[3,2-c]pyridin-4-one] |  | 0.187 nM | 141 nM | 2370 nM |  |  |  | 
18 | COc1c(Nc2c(-c3ccncc3OCCN(C)CC(F)(F)F)[nH]c3c2C(=O)NCC3)ccc(F)c1Cl [Example 96, 3-(3-chloro-4-fluoro-2-methoxyanilino)-2-(3-{2-[methyl(2,2,2-trifluoroethyl)amino]ethoxy}pyridin-4-yl)-1,5,6,7-tetrahydro-4H-pyrrolo[3,2-c]pyridin-4-one] |  | 0.305 nM | 49.6 nM | 1470 nM |  |  |  | 
